According to patent publication US7642251B2, “Compounds for the treatment of hepatitis C” (Bristol-Myers Squibb Company, priority 2007, dated 2010):
Like-named read-outs stand apart in the source and are kept apart here.

Legend:
HCV NS5B = target: T1, HCV NS5B (Hepatitis C virus genotype 1b, UniProt Q9WMX2); assay: Modified HCV NS5B RdRp enzyme assay (preincubation protocol); format: biochemical
T1 construct: The cDNA encoding the NS5B protein of HCV, genotype 1b; made in house; host or cells: E. coli BL21(DE3)
T1 sequence (Q9WMX2 2420-2992): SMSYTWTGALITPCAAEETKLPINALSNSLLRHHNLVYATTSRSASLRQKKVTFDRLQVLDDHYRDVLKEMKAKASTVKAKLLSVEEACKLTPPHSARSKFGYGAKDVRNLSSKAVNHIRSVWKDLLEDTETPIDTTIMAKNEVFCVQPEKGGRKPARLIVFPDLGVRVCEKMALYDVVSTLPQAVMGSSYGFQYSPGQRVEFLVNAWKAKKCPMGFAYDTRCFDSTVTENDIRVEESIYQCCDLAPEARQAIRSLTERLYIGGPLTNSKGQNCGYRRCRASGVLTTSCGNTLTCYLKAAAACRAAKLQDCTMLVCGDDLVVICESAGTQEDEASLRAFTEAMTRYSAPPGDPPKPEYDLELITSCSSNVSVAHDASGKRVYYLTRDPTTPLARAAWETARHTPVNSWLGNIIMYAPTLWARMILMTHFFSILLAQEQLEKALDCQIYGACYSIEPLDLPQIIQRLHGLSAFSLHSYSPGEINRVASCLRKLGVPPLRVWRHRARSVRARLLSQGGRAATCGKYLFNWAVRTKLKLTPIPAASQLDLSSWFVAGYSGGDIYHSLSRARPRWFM
Description: HCV NS5B RdRp cloning, expression, and purification. The cDNA encoding the NS5B protein of HCV, genotype 1b, was cloned into the pET21a expression vector. The protein was expressed with an 18 amino acid C-terminal truncation to enhance the solubility. The E. coli competent cell line BL21(DE3) was used for expression of the protein. Cultures were grown at 37° C. for ˜4 hours until the cultures reached an optical density of 2.0 at 600 nm. The cultures were cooled to 20° C. and induced with 1 mM IPTG. Fresh ampicillin was added to a final concentration of 50 μg/ml and the cells were grown overnight at 20° C.
Cell pellets (3 L) were lysed for purification to yield 15-24 mgs of purified NS5B. The lysis buffer consisted of 20 mM Tris-HCl, pH 7.4, 500 mM NaCl, 0.5% triton X-100, 1 mM DTT, 1 mM EDTA, 20% glycerol, 0.5 mg/ml lysozyme, 10 mM MgCl2, 15 ug/ml deoxyribonuclease I, and Complete™ protease inhibitor tablets (Roche). After addition of the lysis buffer, frozen cell pellets were resuspended using a tissue homogenizer. To reduce the viscosity of the sample, aliquots of the lysate were sonicated on ice using a microtip attached to a Branson sonicator. The sonicated lysate was centrifuged at 100,000×g for 1 hr at 4° C. and filtered through a 0.2 μm filter unit (Corning).
The protein was purified using three sequential chromatography steps: Heparin sepharose CL-6B, polyU sepharose 4B, and Hitrap SP sepharose (Pharmacia). The chromatography buffers were identical to the lysis buffer but contained no lysozyme, deoxyribonuclease I, MgCl2 or protease inhibitor and the NaCl concentration of the buffer was adjusted according to the requirements for charging the protein onto the column. Each column was eluted with a NaCl gradient which varied in length from 5-50 column volumes depending on the column type. After the final chromatography step, the resulting purity of the enzyme is >90% based on SDS-PAGE analysis. The enzyme was aliquoted and stored at −80° C.
Standard HCV NS5B RdRp enzyme assay. HCV RdRp genotype 1b assays were run in a final volume of 60 μl in 96 well plates (Costar 3912). The assay buffer is composed of 20 mM Hepes, pH 7.5, 2.5 mM KCl, 2.5 mM MgCl2, 1 mM DTT, 1.6 U RNAse inhibitor (Promega N2515), 0.1 mg/ml BSA (Promega R3961), and 2% glycerol. All compounds were serially diluted (3-fold) in DMSO and diluted further in water such that the final concentration of DMSO in the assay was 2%. HCV RdRp genotype 1b enzyme was used at a final concentration of 28 nM. A polyA template was used at 6 nM, and a biotinylated oligo-dT12 primer was used at 180 nM final concentration. Template was obtained commercially (Amersham 27-4110). Biotinylated primer was prepared by Sigma Genosys. 3H-UTP was used at 0.6 μCi (0.29 μM total UTP). Reactions were initiated by the addition of enzyme, incubated at 30° C. for 60 min, and stopped by adding 25 μl of 50 mM EDTA containing SPA beads (4 μg/μl, Amersham RPNQ 0007). Plates were read on a Packard Top Count NXT after >1 hr incubation at room temperature.
Modified HCV NS5B RdRp enzyme assay. A modified enzyme assay was performed essentially as described for the standard enzyme assay except for the following: The biotinylated oligo dT12 primer was precaptured on streptavidin-coated SPA beads by mixing primer and beads in assay buffer and incubating at room temperature for one hour. Unbound primer was removed after centrifugation. The primer-bound beads were resuspended in 20 mM Hepes buffer, pH 7.5 and used in the assay at final concentrations of 20 nM primer and 0.67 μg/μl beads. Order of addition in the assay: enzyme (14 nM) was added to diluted compound followed by the addition of a mixture of template (0.2 nM), 3H-UTP (0.6 μCi, 0.29 μM), and primer-bound beads, to initiate the reaction; concentrations given are final. Reactions were allowed to proceed for 4 hours at 30° C.
IC50 values for compounds were determined using seven different [I]. […]

HCV replicon cells = assay: HCV replicon FRET assay; format: cell-based; conditions: Hepatitis C virus
Description: FRET Assay Preparation. To perform the HCV FRET screening assay, 96-well cell culture plates were used. The FRET peptide (Anaspec, Inc.) (Taliani et al., Anal. Biochem. 1996, 240, 60-67) contains a fluorescence donor, EDANS, near one end of the peptide and an acceptor, DABCYL, near the other end. The fluorescence of the peptide is quenched by […] resonance energy transfer (RET) between the donor and the acceptor, but as the NS3 protease cleaves the peptide the products are released from RET quenching and the fluorescence of the donor becomes apparent. The assay reagent was made as follows: 5× cell Luciferase cell culture lysis reagent from Promega (#E153A) diluted to 1× with dH2O, NaCl added to 150 mM final, the FRET peptide diluted to 20 μM final from a 2 mM stock.
To prepare plates, HCV replicon cells, with or without a Renilla luciferase reporter gene, were trypsinized and placed into each well of a 96-well plate with titrated test compounds added in columns 3 through 12; columns 1 and 2 contained a control compound (HCV protease inhibitor), and the bottom row contained cells without compound. The plates were then placed in a CO2 incubator at 37° C.
Assays. Subsequent to addition of the test compounds described above (FRET Assay Preparation), at various times the plate was removed and Alamar blue solution (Trek Diagnostics, #00-100) was added per well as a measure of cellular toxicity. After reading in a Cytoflour 4000 instrument (PE Biosystems), plates were rinsed with PBS and then used for FRET assay by the addition of 30 ul of the FRET peptide assay reagent described above (FRET Assay Preparation) per well. The plate was then placed into the Cytoflour 4000 instrument which had been set to 340 excite/490 emission, automatic mode for 20 cycles and the plate read in a kinetic mode. Typically, the signal to noise using an endpoint analysis after the reads was at least three-fold. Alternatively, after Alamar blue reading, plates were rinsed with PBS, 50 ul of DMEM (high glucose) without phenol red was added and plates were then used for luciferase assay using the Promega Dual-Glo Luciferase Assay System.
Compound analysis was determined by quantification of the relative HCV replicon inhibition and the relative cytotoxicity values. To calculate cytoxicity values, the average Alamar Blue fluorescence signals from the control wells were set as 100% non-toxic. The individual signals in each of the compound test wells were then divided by the average control signal and multiplied by 100% to determine […]. To calculate the HCV replicon inhibition values, an average background value was obtained from the two wells containing the highest amount of HCV protease inhibitor at the end of the assay period. These numbers were similar to those obtained from naïve Huh-7 cells.
The background numbers were then subtracted from the average signal obtained from the control wells and this number was used as 100% activity. The individual signals in each of the compound test wells were then divided by the averaged control values after background subtraction and multiplied by 100% to determine percent activity. EC50 values for a protease inhibitor titration were calculated as the concentration which caused a 50% reduction in FRET or luciferase activity. The two numbers generated for the compound plate, percent cytoxicity and percent activity were used to determine compounds of interest for further analysis.

[1] = preincubation protocol, read-out: IC50

| Compound | IC50 (HCV NS5B; [1]) [nM] | EC50 (HCV replicon cells; FRET assay, read-out: EC50) [nM] | IC50 (HCV NS5B) [nM] | EC50 (HCV replicon cells) [nM] |
| --- | --- | --- | --- | --- |
| COc1ccc2c(c1)C=C(c1ncccc1C(=O)N1CCCC1)Cn1c-2c(C2CCCCC2)c2ccc(C(=O)NS(=O)(=O)N(C)C)cc21 | 4.58 to 500 | 4.58 to 500 | – | – |
| COc1ccc2c(c1)C=C(c1ccccc1OCCN(C)C)Cn1c-2c(C2CCCCC2)c2ccc(C(=O)NS(=O)(=O)C(C)C)cc21 | 4.58 to 500 | 4.58 to 500 | – | – |
| COc1ccc2c(c1)C=C(c1ccccc1)Cn1c-2c(C2CCCCC2)c2ccc(C(=O)NS(=O)(=O)C(C)C)cc21 | 4.58 to 500 | > 500 | – | – |
| COc1ccc2c(c1)C=C(c1cccc(OCCN3CCOCC3)c1)Cn1c-2c(C2CCCCC2)c2ccc(C(=O)NS(=O)(=O)C(C)C)cc21 | 4.58 to 500 | > 500 | – | – |
| COc1ccc2c(c1)C=C(c1ncccc1C(=O)N1CCN(C)CC1)Cn1c-2c(C2CCCCC2)c2ccc(C(=O)NS(=O)(=O)N(C)C)cc21 | 4.58 to 500 | 4.58 to 500 | – | – |
| COc1ccc2c(c1)C=C(c1ccc(N3CCOCC3)nn1)Cn1c-2c(C2CCCCC2)c2ccc(C(=O)NS(=O)(=O)N(C)C)cc21 | 4.58 to 500 | > 500 | – | – |
| COc1ccc2c(c1)C=C(c1cccc(N3CCOCC3)n1)Cn1c-2c(C2CCCCC2)c2ccc(C(=O)O)cc21 | > 500 | > 500 | – | – |
| COc1ccc2c(c1)C=C(c1ncccc1C(=O)N1CCCC1)Cn1c-2c(C2CCCCC2)c2ccc(C(=O)O)cc21 | 4.58 to 500 | 4.58 to 500 | – | – |
| COc1ccc2c(c1)C=C(c1ncccc1S(=O)(=O)N1CCOCC1)Cn1c-2c(C2CCCCC2)c2ccc(C(=O)NS(=O)(=O)N(C)C)cc21 | 4.58 to 500 | 4.58 to 500 | – | – |
| COc1ccc2c(c1)C=C(c1ccccc1C(=O)N1C3CCC1CN(C)C3)Cn1c-2c(C2CCCCC2)c2ccc(C(=O)O)cc21 | – | – | 4.58 to 500 | 4.58 to 500 |
| COc1ccc2c(c1)C=C(c1ccccc1-c1noc(C)n1)Cn1c-2c(C2CCCCC2)c2ccc(C(=O)NS(=O)(=O)C(C)C)cc21 | 4.58 to 500 | 4.58 to 500 | – | – |
| COc1ccc2c(c1)CC(c1cccc(OCCN(C)C)c1)Cn1c-2c(C2CCCCC2)c2ccc(C(=O)NS(=O)(=O)C(C)C)cc21 (stereo not shown) | 4.58 to 500 | 4.58 to 500 | – | – |
| COc1ccc2c(c1)CC(c1cccc(OCCN3CCOCC3)c1)Cn1c-2c(C2CCCCC2)c2ccc(C(=O)NS(=O)(=O)C(C)C)cc21 (stereo not shown) | 4.58 to 500 | 4.58 to 500 | – | – |
| COc1ccc2c(c1)C=C(c1cnc(OC)c3[nH]ccc13)Cn1c-2c(C2CCCCC2)c2ccc(C(=O)O)cc21 | 4.58 to 500 | 4.58 to 500 | – | – |
| COc1ccc2c(c1)C=C(c1ccccc1S(=O)(=O)N1CCCC1)Cn1c-2c(C2CCCCC2)c2ccc(C(=O)NS(=O)(=O)C(C)C)cc21 | 4.58 to 500 | > 500 | – | – |
| COc1ccc2c(c1)C=C(c1cc([N+](=O)[O-])c3[nH]ccc3c1)Cn1c-2c(C2CCCCC2)c2ccc(C(=O)O)cc21 | 4.58 to 500 | > 500 | – | – |
| COc1ccc2c(c1)CC(c1cccc(N3CCOCC3)n1)Cn1c-2c(C2CCCCC2)c2ccc(C(=O)NS(=O)(=O)N(C)C)cc21 (stereo not shown) | 4.58 to 500 | 4.58 to 500 | – | – |
| COc1ccc2c(c1)C=C(c1ncccc1S(=O)(=O)N1C3CCC1CN(C)C3)Cn1c-2c(C2CCCCC2)c2ccc(C(=O)O)cc21 | – | – | > 500 | 4.58 to 500 |
| COc1ccc2c(c1)C=C(c1ncccc1S(=O)(=O)N1CCOCC1)Cn1c-2c(C2CCCCC2)c2ccc(C(=O)O)cc21 | 4.58 to 500 | 4.58 to 500 | – | – |
| COc1ccc2c(c1)C=C(c1cccc3c1OCCO3)Cn1c-2c(C2CCCCC2)c2ccc(C(=O)NS(=O)(=O)C(C)C)cc21 | 4.58 to 500 | > 500 | – | – |
| COc1ccc2c(c1)C=C(c1nccc(N(C)C)n1)Cn1c-2c(C2CCCCC2)c2ccc(C(=O)O)cc21 | > 500 | > 500 | – | – |
| COc1ccc2c(c1)C=C(c1ncccc1C(=O)N1CCCCC1)Cn1c-2c(C2CCCCC2)c2ccc(C(=O)NS(=O)(=O)N(C)C)cc21 | 4.58 to 500 | 4.58 to 500 | – | – |
| COc1ccc2c(c1)C=C(c1cccc(N3CCOCC3)n1)Cn1c-2c(C2CCCCC2)c2ccc(C(=O)NS(=O)(=O)N(C)C)cc21 | 4.58 to 500 | 4.58 to 500 | – | – |
| COc1ccc2c(c1)CC(c1cc(C(=O)N3CCOCC3)ccn1)Cn1c-2c(C2CCCCC2)c2ccc(C(=O)NS(=O)(=O)N(C)C)cc21 (stereo not shown) | 4.58 to 500 | 4.58 to 500 | – | – |
| COc1ccc2c(c1)C=C(c1ccccc1C(F)(F)F)Cn1c-2c(C2CCCCC2)c2ccc(C(=O)NS(=O)(=O)C(C)C)cc21 | 4.58 to 500 | > 500 | – | – |
| COc1ccc2c(c1)C=C(c1ncccc1C(=O)N1CCN(C)CC1)Cn1c-2c(C2CCCCC2)c2ccc(C(=O)O)cc21 | 4.58 to 500 | 4.58 to 500 | – | – |
